Results as given in US6211203A, “Benzofuran-4-carboxamides” (Byk Gulden Lomberg Chemische Fabrik GmbH, priority 1996, dated 2001).

These compounds were tested on PDE IV (assay: Inhibition of PDE IV activity). Settings: Inhibition of PDE IV activity (Table A).
Format: biochemical

Point of comparison: `COc1ccc(C(=O)Nc2c(Cl)cncc2Cl)c2cc(C)oc12` [Compound 1, N-(3,5-Dichloropyrid-4-yl)-7-methoxy-2-methylbenzofuran-4-carboxamide], “-log IC50” value 8.42. Against it:
- COc1ccc(C(=O)Nc2c(Cl)cncc2Cl)c2cc(C(C)C)oc12 [Compound 2, N-(3,5-Dichloropyrid-4-yl)-7-methoxy-2-(1-methylethyl)benzofuran-4-carboxamide] — higher, 9.28
- COc1ccc(C(=O)Nc2c(Cl)cncc2Cl)c2cc(C(C)C)oc12 [Compound 3, N-(3,5-Dichloropyrid-4-yl)-7-methoxy-2-(1-methylethyl)benzofuran-4-carboxamide] — lower, 8.18
- CC(C)c1cc2c(C(=O)Nc3c(Cl)cncc3Cl)ccc(OC(F)F)c2o1 [Compound 4, N-(3,5-Dichloropyrid-4-yl)-7-difluoromethoxy-2-(1-methylethyl)benzofuran-4-carboxamide] — higher, 9.72
- COc1ccc(C(=O)Nc2c(Cl)cncc2Cl)c2cc(C3CCCC3)oc12 [Compound 5, N-(3,5-Dichloropyrid-4-yl)-2-cyclopentyl-7-methoxybenzofuran-4-carboxamide] — higher, 8.80
